Test systems include A549 NSCLC; DU-145 prostate; EKVX NSCLC; HCC-2998 colon; HL-60(TB) leukemia; HOP-62 NSCLC; NCI-H23 lung; SF-539 CNS; SN12C renal; UACC-257 melanoma.
Holding throughout (experiment): inhibition of tumour cell growth, NCI panel, 48 h

Several values for one entry are separate records, joined by “and”; a condition that tells them apart may be missing. Equal entries are not always repeated.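 1) Cells in 96-well plates. 2) Compound, 48 h, 5 concentrations. 3) Linear interpolation between surrounding doses. 4) Unreached endpoint = highest concentration. GI50 is the concentration that inhibits growth by half. TGI: total growth inhibition.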 Where a SMILES comes first, the peptide text is derived from it. The star is where a group is joined. Trt = c1ccc(C(c2ccccc2)(c2ccccc2)*)cc1; Cbz = O=C(OCc1ccccc1)*

For the compound `COC(=O)/C(=N\Nc1nnc(C)n1N)C(C#N)c1ccccc1` (stereo unspecified), the TGI in the test on A549 NSCLC, in the test on DU-145 prostate, in the test with EKVX NSCLC, in the test on HCC-2998 colon, with HL-60(TB) leukemia and in the test with HOP-62 NSCLC was > 100 µM throughout. The TGI in the test on NCI-H23 lung was > 56.1 µM; in the test on SF-539 CNS it was > 100 µM; with SN12C renal it was > 66.7 µM; in the test with UACC-257 melanoma it was > 100 µM.
With `Cc1c(Cl)c(C)c(Cc2c(C)c(Cl)c(C)c(Cl)c2O)c(O)c1Cl`, the GI50 in the test on A549 NSCLC was 4.07 µM; with DU-145 prostate, 4.83 µM; with EKVX NSCLC, 2.64 µM; in the test with HCC-2998 colon it was 3.8 µM; in the test on HL-60(TB) leukemia, 2.92 µM; in the test on NCI-H23 lung, 2.46 µM. Further, the GI50 with SF-539 CNS was 3.01 µM; in the test with SN12C renal, 2.46 µM; in the test with UACC-257 melanoma, 3.52 µM. The TGI in the test with A549 NSCLC turned out to be 18.6 µM; in the test with DU-145 prostate it was 16.6 µM; in the test on EKVX NSCLC it was 9.25 µM; with HCC-2998 colon it was 11.6 µM; with HL-60(TB) leukemia, 11.2 µM; in the test on NCI-H23 lung it was 8.79 µM. The TGI in the test on SF-539 CNS amounted to 11.4 µM; in the test with SN12C renal, 11.8 µM; in the test with UACC-257 melanoma, 14.9 µM.
Turning to `COc1cc(-c2cc(=O)c3c(O)c(OC)c(OC)c(OC)c3o2)cc(OC)c1OC`, the TGI was > 100 µM with A549 NSCLC; > 100 µM in the test on DU-145 prostate; > 100 µM with EKVX NSCLC; > 100 µM in the test with HCC-2998 colon; > 100 µM with HL-60(TB) leukemia; 16.9 µM in the test on HOP-62 NSCLC. Besides, the TGI in the test with NCI-H23 lung is > 62.5 µM; in the test with SF-539 CNS, > 54.9 µM; in the test with SN12C renal it was > 100 µM; in the test with UACC-257 melanoma it was > 100 µM.
With `CCCCCCCCCCCCCCCCOCC(O)CO` (stereo unspecified), the TGI with A549 NSCLC stood at 44 µM; in the test with DU-145 prostate it was 34 µM; in the test with EKVX NSCLC, 36.3 µM; with HCC-2998 colon it was 32.2 µM; in the test with HL-60(TB) leukemia, 23.4 µM; in the test on HOP-62 NSCLC, 43 µM. Further, the TGI in the test on NCI-H23 lung is 37.2 µM; in the test with SF-539 CNS, 31.5 µM; in the test on SN12C renal, 36.3 µM; with UACC-257 melanoma it was 35.7 µM.
As for `COC(=O)C(CSC(c1ccccc1)(c1ccccc1)c1ccccc1)NC(=O)C(CC(N)=O)NC(=O)OCc1ccccc1` (stereo not drawn) (Cbz-Asn-Cys(Trt)-OMe; configuration not given here), the GI50 in the test on A549 NSCLC is 4.38 µM; in the test with DU-145 prostate, 2.68 µM; in the test with EKVX NSCLC, 4.15 µM; in the test on HCC-2998 colon, 2.03 µM; with HL-60(TB) leukemia, 2.1 µM; in the test with HOP-62 NSCLC, 3.77 µM. The GI50 is 5.73 µM in the test with NCI-H23 lung, 1.68 µM in the test with SF-539 CNS, 3.54 µM in the test with SN12C renal and 8.92 µM in the test on UACC-257 melanoma. Further, the TGI worked out at 51.7 µM with A549 NSCLC; 8.61 µM in the test with DU-145 prostate; 25.5 µM with EKVX NSCLC; 4.82 µM with HCC-2998 colon; 4.39 µM in the test on HL-60(TB) leukemia; 14.7 µM in the test on HOP-62 NSCLC. Further, the TGI in the test with NCI-H23 lung was 22.6 µM; in the test on SF-539 CNS it was 5.49 µM; in the test with SN12C renal, 15 µM; in the test with UACC-257 melanoma, 21.7 µM.
In the case of `Cc1c(Cl)cccc1NC(=O)c1sc2nc3c(cc2c1N)CCCC3`, the GI50 in the test on A549 NSCLC is 0.984 µM; in the test on DU-145 prostate it was 1.38 µM; with EKVX NSCLC, 0.64 µM; with HCC-2998 colon it was > 100 µM; with HL-60(TB) leukemia it was 0.305 µM; in the test on HOP-62 NSCLC, 0.451 µM. Moreover, the GI50 in the test on NCI-H23 lung was 9.15 µM; in the test on SF-539 CNS, 0.328 µM; with SN12C renal it was 5.88 µM; with UACC-257 melanoma it was 0.688 µM. Also, the TGI in the test on A549 NSCLC, in the test with DU-145 prostate, in the test with EKVX NSCLC, in the test with HCC-2998 colon, with HOP-62 NSCLC and in the test with NCI-H23 lung was > 100 µM in each case. Besides, the TGI with SN12C renal and in the test on UACC-257 melanoma was > 100 µM throughout.
`Cn1cc(-c2nc(N[C@@H]3CCCC[C@@H]3N)c(F)c3c2C(=O)NC3)cn1`: the GI50 in the test on A549 NSCLC is 6.47 µM and 9.22 µM; with DU-145 prostate, 11.5 µM and 14.4 µM; in the test on EKVX NSCLC it was 14.3 µM and 20.1 µM; in the test on HCC-2998 colon, 26.6 µM and 28.2 µM; in the test on HL-60(TB) leukemia, 9.21 µM and 11.2 µM; with HOP-62 NSCLC it was 3.37 µM and 3.32 µM. The GI50 in the test with NCI-H23 lung is 5.58 µM and 5.83 µM; with SF-539 CNS, 2.81 µM and 3.16 µM; in the test with SN12C renal, 3.61 µM and 3.8 µM; with UACC-257 melanoma, 19.4 µM and 23.9 µM. Further, the TGI is 75.5 µM and 81.1 µM in the test on A549 NSCLC; > 100 µM in the test on DU-145 prostate; > 100 µM with EKVX NSCLC; > 100 µM with HCC-2998 colon; 37 µM and 40.9 µM in the test on HL-60(TB) leukemia; 29.7 µM and 30.5 µM in the test with HOP-62 NSCLC. Also, the TGI in the test on NCI-H23 lung was 48.7 µM and > 63.7 µM; in the test with SF-539 CNS, 13.9 µM and 16.1 µM; with SN12C renal, > 100 µM; in the test with UACC-257 melanoma it was 98.6 µM and > 88.5 µM.
For `Cc1cc2nc3c4ccc(Br)cc4n(CCN(C)C)c3nc2cc1C`, the GI50 in the test with A549 NSCLC was 1.16 µM; with DU-145 prostate it was 2.96 µM; with EKVX NSCLC, 2.02 µM; with HCC-2998 colon, 1.23 µM; in the test on HL-60(TB) leukemia it was 1.45 µM; with HOP-62 NSCLC, 1.71 µM. The GI50 in the test on NCI-H23 lung was 1.5 µM; in the test on SF-539 CNS, 1.6 µM; in the test with SN12C renal, 1.1 µM; with UACC-257 melanoma it was 1.88 µM. The TGI in the test on A549 NSCLC came to 10.3 µM; with DU-145 prostate it was 9.96 µM; with EKVX NSCLC it was 6.58 µM; in the test on HCC-2998 colon it was 2.74 µM; in the test with HL-60(TB) leukemia, 5.68 µM; in the test with HOP-62 NSCLC it was 10.7 µM. Moreover, the TGI in the test on NCI-H23 lung was 3.47 µM; in the test with SF-539 CNS it was 3.17 µM; in the test on SN12C renal, 6.18 µM; in the test on UACC-257 melanoma, 3.91 µM.
Take `COc1ccc(-c2nc(C(=O)c3ccccc3)n(CC(=O)c3ccc(Cl)cc3)c2-c2ccc(OC)cc2)cc1`: the GI50 is > 100 µM with A549 NSCLC; > 100 µM in the test with DU-145 prostate; > 100 µM in the test with EKVX NSCLC; > 100 µM in the test with HCC-2998 colon; 46 µM with HL-60(TB) leukemia; > 100 µM with HOP-62 NSCLC. The GI50 with NCI-H23 lung, with SF-539 CNS, with SN12C renal and in the test with UACC-257 melanoma was > 100 µM throughout. Besides, the TGI in the test with A549 NSCLC, with DU-145 prostate, in the test with EKVX NSCLC, with HCC-2998 colon, in the test with HL-60(TB) leukemia and in the test with HOP-62 NSCLC was > 100 µM each time. For the same compound, the TGI in the test on NCI-H23 lung, in the test on SF-539 CNS, in the test with SN12C renal and in the test with UACC-257 melanoma was > 100 µM in each case.

The values are drawn from PubChem BioAssay (NCI).
